The values below are quoted from earlier work in US8147876B2, “Medical agent for preventing or treating diseases resulting from one of inflammation and remodeling, and method for preventing or treating the diseases” (National University Corporation Tokyo Medical and Dental …, priority 2007, dated 2012).

In the series the test system is VCAM-1. Particulars: human tracheal smooth muscle cells, J Cell Physiol. 2006.

As for `COc1cc(/C=C/C(=O)CC(=O)/C=C/c2ccc(O)c(OC)c2)ccc1O` [Curcumin], the “TNFα-induced VCAM-1 expression” value is “inhibit”.
